Measured values from paper PMC3961306, “Comparison of the Cancer Gene Targeting and Biochemical Selectivities of All Targeted Kinase Inhibitors Approved for Clinical Use” (PLoS ONE, 2014).

Tests used:
Test in all cases: Kinase profiling in a biochemical assay panel (mobility shift assays and ELISA), %-inhibition at 1 μM; selectivity entropy
[1] = target: panel of more than 300 wild-type and mutant kinases (313 kinase panel) (Homo sapiens, UniProt Q9UBS0)
[2] = target: T1, panel of more than 300 wild-type and mutant kinases (313 kinase panel) (Homo sapiens, UniProt Q96PN8)
T1 sequence (Q96PN8 1-268): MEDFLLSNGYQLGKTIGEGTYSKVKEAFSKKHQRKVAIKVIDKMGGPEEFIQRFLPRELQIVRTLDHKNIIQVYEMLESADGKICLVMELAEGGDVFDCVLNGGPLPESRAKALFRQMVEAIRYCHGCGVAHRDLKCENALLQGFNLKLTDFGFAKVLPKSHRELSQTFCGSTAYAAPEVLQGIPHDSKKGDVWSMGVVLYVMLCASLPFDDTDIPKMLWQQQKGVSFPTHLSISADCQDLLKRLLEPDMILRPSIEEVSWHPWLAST

[3] = target: T2, panel of more than 300 wild-type and mutant kinases (313 kinase panel) (Homo sapiens, UniProt P30530)
T2 sequence (P30530 26-894): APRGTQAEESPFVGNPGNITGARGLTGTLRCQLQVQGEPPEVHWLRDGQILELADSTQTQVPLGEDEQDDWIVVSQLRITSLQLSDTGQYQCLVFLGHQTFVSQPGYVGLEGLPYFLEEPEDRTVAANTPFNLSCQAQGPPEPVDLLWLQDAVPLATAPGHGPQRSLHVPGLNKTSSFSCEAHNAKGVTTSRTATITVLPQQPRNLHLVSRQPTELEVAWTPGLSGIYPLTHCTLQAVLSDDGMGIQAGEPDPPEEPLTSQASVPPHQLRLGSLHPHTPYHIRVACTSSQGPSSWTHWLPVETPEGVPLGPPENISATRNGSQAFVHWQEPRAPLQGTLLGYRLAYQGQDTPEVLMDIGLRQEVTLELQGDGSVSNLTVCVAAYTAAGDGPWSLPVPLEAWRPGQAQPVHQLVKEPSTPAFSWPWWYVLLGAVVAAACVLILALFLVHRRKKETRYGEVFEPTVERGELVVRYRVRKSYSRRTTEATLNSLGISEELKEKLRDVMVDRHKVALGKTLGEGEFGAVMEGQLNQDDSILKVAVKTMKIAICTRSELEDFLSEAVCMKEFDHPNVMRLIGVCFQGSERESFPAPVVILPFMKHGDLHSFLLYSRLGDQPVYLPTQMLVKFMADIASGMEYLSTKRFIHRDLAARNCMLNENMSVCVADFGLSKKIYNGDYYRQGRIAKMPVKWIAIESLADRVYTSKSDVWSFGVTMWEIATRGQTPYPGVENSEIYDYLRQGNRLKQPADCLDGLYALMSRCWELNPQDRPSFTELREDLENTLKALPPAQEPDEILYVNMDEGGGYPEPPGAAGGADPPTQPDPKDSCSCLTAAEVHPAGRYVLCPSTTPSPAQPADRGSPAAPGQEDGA

[4] = target: panel of more than 300 wild-type and mutant kinases (313 kinase panel) (Homo sapiens, UniProt P51957)
[5] = target: T3, panel of more than 300 wild-type and mutant kinases (313 kinase panel) (Homo sapiens, UniProt P33981)
T3 sequence (P33981 1-857): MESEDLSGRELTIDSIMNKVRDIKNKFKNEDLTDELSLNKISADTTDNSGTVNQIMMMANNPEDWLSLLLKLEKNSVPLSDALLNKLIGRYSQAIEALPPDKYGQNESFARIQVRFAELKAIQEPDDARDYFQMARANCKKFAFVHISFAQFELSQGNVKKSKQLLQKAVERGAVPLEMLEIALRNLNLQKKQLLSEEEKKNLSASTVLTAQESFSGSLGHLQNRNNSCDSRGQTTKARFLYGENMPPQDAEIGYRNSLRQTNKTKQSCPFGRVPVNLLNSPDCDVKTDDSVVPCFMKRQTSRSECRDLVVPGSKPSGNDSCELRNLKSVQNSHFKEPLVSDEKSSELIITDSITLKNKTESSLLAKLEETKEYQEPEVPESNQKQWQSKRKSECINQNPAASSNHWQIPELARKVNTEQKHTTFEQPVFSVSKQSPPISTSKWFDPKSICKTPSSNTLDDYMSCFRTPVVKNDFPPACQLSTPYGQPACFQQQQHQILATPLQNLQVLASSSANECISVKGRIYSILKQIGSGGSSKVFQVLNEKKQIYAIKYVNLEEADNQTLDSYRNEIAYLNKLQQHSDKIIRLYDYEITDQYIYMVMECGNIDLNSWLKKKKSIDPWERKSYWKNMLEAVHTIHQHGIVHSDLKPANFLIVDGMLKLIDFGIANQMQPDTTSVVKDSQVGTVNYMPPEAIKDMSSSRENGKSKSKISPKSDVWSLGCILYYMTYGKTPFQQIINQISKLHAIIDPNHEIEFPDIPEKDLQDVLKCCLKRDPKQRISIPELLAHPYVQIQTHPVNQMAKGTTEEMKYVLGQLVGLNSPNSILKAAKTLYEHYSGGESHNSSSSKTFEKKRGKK

[6] = target: panel of more than 300 wild-type and mutant kinases (313 kinase panel) (Homo sapiens, UniProt Q02750)
[7] = kinase MAP2K1, compound at 1 μM

panel of more than 300 wild-type and mutant kinases (313 kinase panel) (Homo sapiens, UniProt P51957), sequence (P51957 whole entry, change not shown): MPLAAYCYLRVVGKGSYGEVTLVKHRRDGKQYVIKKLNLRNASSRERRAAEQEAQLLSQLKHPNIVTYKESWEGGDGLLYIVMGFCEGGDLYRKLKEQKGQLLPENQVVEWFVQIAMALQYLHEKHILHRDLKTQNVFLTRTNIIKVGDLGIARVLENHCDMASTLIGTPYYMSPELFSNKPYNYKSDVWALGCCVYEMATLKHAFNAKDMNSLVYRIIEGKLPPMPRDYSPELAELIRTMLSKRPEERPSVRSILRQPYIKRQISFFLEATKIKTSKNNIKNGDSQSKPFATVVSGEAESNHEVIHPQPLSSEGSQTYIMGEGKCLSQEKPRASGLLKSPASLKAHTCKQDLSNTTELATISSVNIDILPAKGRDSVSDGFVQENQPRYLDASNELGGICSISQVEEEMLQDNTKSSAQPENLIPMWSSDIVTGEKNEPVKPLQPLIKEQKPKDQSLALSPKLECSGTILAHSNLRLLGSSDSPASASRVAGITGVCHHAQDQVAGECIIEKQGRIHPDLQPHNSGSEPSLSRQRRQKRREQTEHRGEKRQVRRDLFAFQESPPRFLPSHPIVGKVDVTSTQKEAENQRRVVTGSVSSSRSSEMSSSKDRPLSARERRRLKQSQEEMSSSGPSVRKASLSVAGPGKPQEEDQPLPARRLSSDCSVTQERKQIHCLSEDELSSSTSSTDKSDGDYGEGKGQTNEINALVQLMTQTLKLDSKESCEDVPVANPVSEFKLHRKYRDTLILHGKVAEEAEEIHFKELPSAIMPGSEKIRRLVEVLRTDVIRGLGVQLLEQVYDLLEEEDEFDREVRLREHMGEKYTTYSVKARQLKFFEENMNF

| Structure (SMILES) | %-inhibition of p70S6Kβ ([1]; kinase p70S6Kβ, 1 μM) [%] | %-inhibition of TSSK3 ([2]; kinase TSSK3, compound at 1 μM) [%] | %-inhibition, AXL ([3]; kinase AXL, 1 μM compound) [%] | %-inhibition of NEK4 ([4]; kinase NEK4, 1 μM) [%] | %-inhibition of TTK ([5]; kinase TTK, compound at 1 μM) [%] | %-inhibition of MAP2K1 [6, 7] [%] | %-inhibition of p70S6Kβ ([1]; 1 µM) [%] | %-inhibition of TSSK3 ([2]; 1 µM) [%] | %-inhibition of MAP2K1 ([6]; 1 µM) [%] | %-inhibition of TTK ([5]; 1 µM) [%] | %-inhibition, AXL ([3]; 1 µM) [%] | %-inhibition of NEK4 ([4]; 1 µM) [%] |
| --- | --- | --- | --- | --- | --- | --- | --- | --- | --- | --- | --- | --- |
| Cc1ccc(C(=O)Nc2ccc(CN3CCN(C)CC3)c(C(F)(F)F)c2)cc1C#Cc1cnc2cccnn12 [ponatinib] | 78 | -4.67 | 70 | 98 |  |  |  |  |  |  |  |  |
| CC(C)(C)c1nc(-c2cccc(NS(=O)(=O)c3c(F)cccc3F)c2F)c(-c2ccnc(N)n2)s1 [dabrafenib] | -0.554 | -8 | 30 | 4 | -22 |  |  |  |  |  |  |  |
| COc1cc(Nc2c(C#N)cnc3cc(OCCCN4CCN(C)CC4)c(OC)cc23)c(Cl)cc1Cl [bosutinib] |  | -2 |  | 84 |  |  |  |  |  |  |  |  |
| Cc1nc(Nc2ncc(C(=O)Nc3c(C)cccc3Cl)s2)cc(N2CCN(CCO)CC2)n1 [dasatinib] |  | -2.69 |  | 1.17 |  |  |  |  |  |  |  |  |
| CO[C@H]1C[C@@H]2CC[C@@H](C)[C@@](O)(O2)C(=O)C(=O)N2CCCC[C@H]2C(=O)O[C@H]([C@H](C)C[C@@H]2CC[C@@H](OC(=O)C(C)(CO)CO)[C@H](OC)C2)CC(=O)[C@H](C)/C=C(\C)[C@@H](O)[C@@H](OC)C(=O)[C@H](C)C[C@H](C)/C=C/C=C/C=C/1C [temsirolimus] | -7 | -2.63 | -1.78 | 0.416 | -22 | 0.452 |  |  |  |  |  |  |
| C#Cc1cccc(Nc2ncnc3cc(OCCOC)c(OCCOC)cc23)c1 [erlotinib] |  |  |  |  |  |  | 13 | -7 | 26 | 6.42 | 18 | 0.778 |
| CCCS(=O)(=O)Nc1ccc(F)c(C(=O)c2c[nH]c3ncc(-c4ccc(Cl)cc4)cc23)c1F [vemurafenib] | 0.235 | -3.19 | 20 | -0.416 | -14 | 18 |  |  |  |  |  |  |
| N#CC[C@H](C1CCCC1)n1cc(-c2ncnc3[nH]ccc23)cn1 [ruxolitinib] | 11 | -3 | 12 | -6 | 2 | 11 |  |  |  |  |  |  |
| CC(=O)Nc1cccc(-n2c(=O)n(C3CC3)c(=O)c3c(Nc4ccc(I)cc4F)n(C)c(=O)c(C)c32)c1 [trametinib] | -1 | -8 | -1.12 | 2 | 59 | 99 |  |  |  |  |  |  |
| COc1cc2c(Nc3ccc(Br)cc3F)ncnc2cc1OCC1CCN(C)CC1 [vandetanib] | 2.58 | -2.54 |  | -6.51 | 3 | 10 |  |  |  |  |  |  |
| CS(=O)(=O)CCNCc1ccc(-c2ccc3ncnc(Nc4ccc(OCc5cccc(F)c5)c(Cl)c4)c3c2)o1 [lapatinib] | 8 | 0.192 |  | 0.649 | 0.257 | 21 |  |  |  |  | 19 |  |
| CO[C@H]1C[C@@H]2CC[C@@H](C)[C@@](O)(O2)C(=O)C(=O)N2CCCC[C@H]2C(=O)O[C@H]([C@H](C)C[C@@H]2CC[C@@H](OCCO)[C@H](OC)C2)CC(=O)[C@H](C)/C=C(\C)[C@@H](O)[C@@H](OC)C(=O)[C@H](C)C[C@H](C)/C=C/C=C/C=C/1C [everolimus] | -11 | -3 | -1.68 | 0.832 | -2.68 | 7.5 |  |  |  |  |  |  |
| CCN(CC)CCNC(=O)c1c(C)[nH]c(/C=C2\C(=O)Nc3ccc(F)cc32)c1C [sunitinib] |  |  | 98 |  |  | 89 |  |  |  |  |  |  |
| CNC(=O)c1cc(Oc2ccc(NC(=O)Nc3ccc(Cl)c(C(F)(F)F)c3)c(F)c2)ccn1 [regorafenib] | 1.41 | -4.39 | 29 | -4 | 0.186 | -8.57 |  |  |  |  |  |  |
| O=S(=O)(c1cccc2cnccc12)N1CCCNCC1 [fasudil] | 37 | -6 | 2.62 | -1.87 | -11 | 5.3 |  |  |  |  |  |  |
| C[C@@H](Oc1cc(-c2cnn(C3CCNCC3)c2)cnc1N)c1c(Cl)ccc(F)c1Cl [crizotinib] | 6 | -0.601 |  | 4.57 | -9 | 0.819 |  |  |  |  |  |  |
| CN(C)C/C=C/C(=O)Nc1cc2c(Nc3ccc(F)c(Cl)c3)ncnc2cc1O[C@H]1CCOC1 [afatinib] | 3.42 |  |  |  |  |  |  |  |  |  |  |  |
| Cc1cn(-c2cc(NC(=O)c3ccc(C)c(Nc4nccc(-c5cccnc5)n4)c3)cc(C(F)(F)F)c2)cn1 [nilotinib] | -3.7 | 12 | -4.75 | -22 | -8 | -8 |  |  |  |  |  |  |
| Cc1ccc(Nc2nccc(N(C)c3ccc4c(C)n(C)nc4c3)n2)cc1S(N)(=O)=O [pazopanib] | 1.69 | 4.41 | 24 | 12 | 31 | 2.11 |  |  |  |  |  |  |
| COc1cc2nccc(Oc3ccc(NC(=O)C4(C(=O)Nc5ccc(F)cc5)CC4)cc3)c2cc1OC [cabozantinib] | -3.52 | -1.06 | 100 | 16 | 2.75 | 82 |  |  |  |  |  |  |
